This is an account of results in PubChem BioAssay (NCI).

Structures are written as SMILES.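 Exposure lasted 48 hours, with cells grown in 96-well plates and compounds tested at five concentrations. Abbreviation: GI50, concentration required for 50% inhibition of growth. The concentration for full growth arrest is given as TGI.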 A value given as a limit tells only on which side of the number the result lay.

One test has as its system SR leukemia. Kind of test: DTP human tumour cell line panel, 48 h.
For orientation: GI50 means the concentration giving 50% growth inhibition. What is called TGI is the concentration giving total growth inhibition. A low value points to more potent growth arrest. Turning to `CN1CCN(CCCn2c(=O)c3sc4ncccc4c3n3nnc(-c4ccccc4)c23)CC1`, the GI50 was 1.11 µM and the TGI was 2.57 µM.
As to `CC(=O)OC1COC(n2ccc3cc(Br)c([N+](=O)[O-])cc32)C(OC(C)=O)C1OC(C)=O` (stereo unspecified), the TGI was over 100 µM.
Regarding `NC1(C(=O)OCc2ccccc2)CCCC1`, the TGI is over 100 µM.
Turning to `O=C(/C=C/c1ccc(Cl)cc1)c1ccc(Nc2ccnc3cc(Cl)ccc23)cc1`, the GI50 was 0.565 µM and the TGI is over 100 µM.
In turn, `COc1cc(C2c3cc4c(cc3OC(C)(O)C2C)OCO4)cc(OC)c1OC` (stereo unspecified) showed a TGI of 14.2 µM.
Same read-out and setting: the value for `Cn1cnc([N+](=O)[O-])c1Sc1nc2ccccc2[nH]1` was 45.1 µM; that for `N#CC(C#N)=CNC(N)=S` was over 100 µM.
Same read-out and setting: the value for `COc1cc2c(c(OC)c1OC)-c1ccc(OC)c(=O)cc1C(NC(=O)c1ccc(N=[N+]=[N-])cc1)CC2` (stereo unspecified) was over 100 µM; that for `CCCCCCCCC/C=C1\CCC(CN2CCOCC2)C1=O` (stereo unspecified) was 6.28 µM; that for `CCCCCCN(CCCCCC)C(=O)Cc1c2n(c3ccccc13)Cc1ccccc1-2` was over 100 µM.
`CC(=O)[C@@]12O[C@@H]1CC1C3CCC4=CC(O)CCC4(C)C3CCC12C` (stereo partly specified): the GI50 was over 100 µM and the TGI is over 100 µM.
For `C/C(=N\NC(=S)NC(CCC(=O)O)C(=O)O)c1ccccn1` (stereo unspecified), the TGI was over 100 µM.
The same measure, in the same setting: the value for `Brc1ccccc1C1SCc2nc3ccccc3n21` (stereo unspecified) was 45.1 µM; that for `C=C(Br)C(C)(Br)CCC(Br)C(C)(C)Cl` (stereo unspecified) was 27.9 µM; that for `CCc1cc(Cc2cc(CC)c(NC(=O)C(=O)Cc3ccccn3)c(CC)c2Cl)c(Cl)c(CC)c1NC(=O)C(=O)Cc1ccccn1` was over 100 µM.
Same read-out and setting: the value for `CC(C)OP(=O)(OC(C)C)C(=NCCN=C(NNc1ccc([N+](=O)[O-])cc1)P(=O)(OC(C)C)OC(C)C)NNc1ccc([N+](=O)[O-])cc1` was over 100 µM.
The compound `C#CC1(O)CCC2C3CCc4cc(Oc5nc(F)nc(-c6c7ccccc7c7sc8ccccc8n67)n5)ccc4C3CC[C@@]21C` (stereo partly specified) had a TGI of over 100 µM.
As for `Clc1ccc(C(c2ccc(Cl)cc2)c2ccccn2)cc1`, the TGI was 49.8 µM.
Still for that read-out and setting: the value for `CC(C)(C)OC(=O)N[C@H]1CC2(C=C(Cl)C(=O)C(Cl)=C2)OC1=O` was over 25 µM; that for `O=c1cc(-c2ccccc2)oc2cc(OCCCOc3ccc4c(=O)cc(-c5ccccc5)oc4c3)ccc12` was over 100 µM.

The subject of a further test is A549 NSCLC. Kind of test: DTP human tumour cell line panel, 48 h.
Take `CN(C(=O)c1ccc(C(F)(F)F)cc1)c1ccc(Oc2ccc3c(c2)cc(C(=O)N2CCN(Cc4ccc(OC(F)F)cc4)CC2)n3C)nc1`: the GI50 is 3.23 µM and the TGI was over 100 µM.
Regarding `Cc1cc(-c2ccc3nc(C4CCOCC4)n(CCOC(F)(F)F)c3c2)cn(C)c1=O`, the GI50 was 0.48 µM.
`Nc1ncnc2c1nnn2C1OC(CO)C(O)C1O` (stereo unspecified) returned a TGI of 19.2 µM.
Turning to `COc1cc(/C=C2\CN(S(=O)(=O)c3ccccc3)C/C(=C\c3cc(CN4CCCC4)c(O)c(OC)c3)C2=O)cc(CN2CCCC2)c1O`, the GI50 is 3.61 µM and the TGI is over 100 µM.
For the compound `CN1CCN(CCCn2c(=O)c3sc4ncccc4c3n3nnc(-c4ccccc4)c23)CC1`, the GI50 was 6.81 µM and the TGI was 13.8 µM.
On to `CC(=O)OC1COC(n2ccc3cc(Br)c([N+](=O)[O-])cc32)C(OC(C)=O)C1OC(C)=O` (stereo unspecified), for which the TGI was 92.3 µM.
The compound `NC1(C(=O)OCc2ccccc2)CCCC1` yielded a TGI of over 100 µM.
In the case of `O=C(/C=C/c1ccc(Cl)cc1)c1ccc(Nc2ccnc3cc(Cl)ccc23)cc1`, the GI50 is over 100 µM and the total growth inhibition concentration (TGI) was over 100 µM.
Compound `COc1cc(C2c3cc4c(cc3OC(C)(O)C2C)OCO4)cc(OC)c1OC` (stereo unspecified) returned a TGI of 0.761 µM.
Compound `Cn1cnc([N+](=O)[O-])c1Sc1nc2ccccc2[nH]1` registered a TGI of 54 µM.
Still for that read-out and setting: the value for `N#CC(C#N)=CNC(N)=S` was over 100 µM.
Still for that read-out and setting: the value for `COc1cc2c(c(OC)c1OC)-c1ccc(OC)c(=O)cc1C(NC(=O)c1ccc(N=[N+]=[N-])cc1)CC2` (stereo unspecified) was over 100 µM; that for `CCCCCCCCC/C=C1\CCC(CN2CCOCC2)C1=O` (stereo unspecified) was 34.7 µM.
Still for that read-out and setting: the value for `CCCCCCN(CCCCCC)C(=O)Cc1c2n(c3ccccc13)Cc1ccccc1-2` was over 100 µM.
With `CC(=O)[C@@]12O[C@@H]1CC1C3CCC4=CC(O)CCC4(C)C3CCC12C` (stereo partly specified), the GI50 was 72.7 µM and the TGI was over 100 µM.
As to `C/C(=N\NC(=S)NC(CCC(=O)O)C(=O)O)c1ccccn1` (stereo unspecified), the TGI is over 100 µM.
Still for that read-out and setting: the value for `Brc1ccccc1C1SCc2nc3ccccc3n21` (stereo unspecified) was over 100 µM.
On the same count and under the same terms, the value for `C=C(Br)C(C)(Br)CCC(Br)C(C)(C)Cl` (stereo unspecified) was over 100 µM; that for `CCc1cc(Cc2cc(CC)c(NC(=O)C(=O)Cc3ccccn3)c(CC)c2Cl)c(Cl)c(CC)c1NC(=O)C(=O)Cc1ccccn1` was over 100 µM.
The same measure, in the same setting: the value for `CC(C)OP(=O)(OC(C)C)C(=NCCN=C(NNc1ccc([N+](=O)[O-])cc1)P(=O)(OC(C)C)OC(C)C)NNc1ccc([N+](=O)[O-])cc1` was over 100 µM; that for `C#CC1(O)CCC2C3CCc4cc(Oc5nc(F)nc(-c6c7ccccc7c7sc8ccccc8n67)n5)ccc4C3CC[C@@]21C` (stereo partly specified) was over 100 µM.
`Clc1ccc(C(c2ccc(Cl)cc2)c2ccccn2)cc1` yielded a TGI of 38.6 µM.
On the same count and under the same terms, the value for `CC(C)(C)OC(=O)N[C@H]1CC2(C=C(Cl)C(=O)C(Cl)=C2)OC1=O` was over 100 µM.
`O=c1cc(-c2ccccc2)oc2cc(OCCCOc3ccc4c(=O)cc(-c5ccccc5)oc4c3)ccc12` gave a TGI of over 100 µM.

For another test, the system named is OVCAR-4 ovarian. Kind of test: DTP human tumour cell line panel, 48 h.
As to `CN(C(=O)c1ccc(C(F)(F)F)cc1)c1ccc(Oc2ccc3c(c2)cc(C(=O)N2CCN(Cc4ccc(OC(F)F)cc4)CC2)n3C)nc1`, the GI50 was under 0.01 µM and the TGI was over 49.7 µM.
Take `Nc1ncnc2c1nnn2C1OC(CO)C(O)C1O` (stereo unspecified): the TGI came out at 8.48 µM.
On to `COc1cc(/C=C2\CN(S(=O)(=O)c3ccccc3)C/C(=C\c3cc(CN4CCCC4)c(O)c(OC)c3)C2=O)cc(CN2CCCC2)c1O`, for which the GI50 was 1.27 µM and the TGI was 3.09 µM.
On to `CN1CCN(CCCn2c(=O)c3sc4ncccc4c3n3nnc(-c4ccccc4)c23)CC1`, for which the GI50 was 7.27 µM and the TGI stood at 14 µM.
With `NC1(C(=O)OCc2ccccc2)CCCC1`, the TGI is 37.3 µM.
Consider `O=C(/C=C/c1ccc(Cl)cc1)c1ccc(Nc2ccnc3cc(Cl)ccc23)cc1`, for which the GI50 is over 100 µM and the TGI was over 100 µM.
`Cn1cnc([N+](=O)[O-])c1Sc1nc2ccccc2[nH]1` had a TGI of over 100 µM.
Still for that read-out and setting: the value for `N#CC(C#N)=CNC(N)=S` was over 100 µM.
`COc1cc2c(c(OC)c1OC)-c1ccc(OC)c(=O)cc1C(NC(=O)c1ccc(N=[N+]=[N-])cc1)CC2` (stereo unspecified) yielded a TGI of over 100 µM.
Still for that read-out and setting: the value for `CCCCCCCCC/C=C1\CCC(CN2CCOCC2)C1=O` (stereo unspecified) was 12 µM.
